Assay results taken from article PMC2954314 (European Journal of Pharmaceutical Sciences, 2010).
Entries after “also recorded” stand apart in the source; their conditions may differ. Structures can show the parent of a compound that is named as a salt.

What was measured:
δ opioid receptor [1] = molecular target: δ opioid receptor (Rattus norvegicus, UniProt P33533); assay type: binding
μ opioid receptor = μ opioid receptor (Rattus norvegicus, UniProt P33535); assay: Opioid receptor competition binding, [3H]DAMGO, rat brain membranes
κ opioid receptor [2] = molecular target: κ opioid receptor (Cavia porcellus, UniProt P41144); assay: Opioid receptor competition binding, [3H]U69,593, guinea pig brain membranes
mice [3] = assay: Tail-flick test after s.c. administration; assay type: in vivo; conditions: Mus musculus, sc, 0.5 h, read-out: ED50 Tail-flick test
mice [4] = assay: Rotarod test of motor coordination after s.c. administration; assay type: in vivo, mouse; conditions: 10 mg/kg (dose range 1.25–10 mg/kg), 30 min
mice [5] = assay: Hot-plate test after s.c. administration; assay type: in vivo; conditions: Mus musculus, sc, 0.5 h, read-out: ED50 Hot-plate test
κ opioid receptor [6] = conditions: read-out: Ki κ; ref Spetea et al., 2005; cited from earlier work
δ opioid receptor [7] = conditions: read-out: Ki δ; ref Spetea et al., 2005; cited from earlier work

COc1ccc2c3c1O[C@@]1(Cc4ccccc4)C(=O)C=C[C@@]4(OC)[C@@H](C2)N(C)CC[C@]314 [Compound 3, 5β-Benzyl-14-methoxycodeinone hydrochloride]
Ki (δ opioid receptor [1]): > 10 µM | Ki (μ opioid receptor): 0.0341 ± 0.006 µM | Ki (κ opioid receptor [2]): 1.89 ± 0.453 µM

CN1CC[C@]23c4c5ccc(O)c4O[C@H]2[C@@H](O)C=C[C@H]3[C@H]1C5 [Morphine, Morphine hydrochloride]
ED50 (mice [3]): 2.29 mg/kg | Effect on motor coordination (rotarod latencies) (mice [4]): significant effect; also recorded: dose-dependent suppressive effects on motor coordination with significance | ED50 (mice [5]): 2.63 mg/kg
